# According to PMC10561090, “Modulation of HIV-1 capsid multimerization by sennoside A and sennoside B via interaction with the NTD/CTD interface in capsid hexamer” (Frontiers in Microbiology, 2023):
# Where “and” joins values, the source holds several entries; their conditions need not be identical. Equal values may be shown once. Read-outs that look alike come from different tables or passages of the source. Where no end group is shown, it is not given here. The star is where a group is joined. Biotin = O=C1N[C@H]2[C@H](CS[C@H]2CCCCC(=O)*)N1
# What was measured:
# [1] = target: T1, HIV-1 CA CTD/CAI interaction (Human immunodeficiency virus type 1 group M subtype B, UniProt P12493); test: biochemical; assay type: binding; details: for inhibition at 50 µM: read-out: IR (%), inhibitory rate; for IC50: 12-point two-fold dilution 50 to 0.024 μM, n = 3
# T1 construct: DNA encoding the CA CTD was cloned into BamHI-NotI sites of prokaryotic expression vector pGEX-4 T-1; made in house; host or cells: E. coli BL21(DE3)
# Experimental: The Discovery Probe FDA-approved Drug Library comprised 1,971 compounds, which were available as stock solutions at 10 mM concentrations in DMSO. Primary screening of these compounds was conducted using a previously established HTRF assay ([Zhang et al., 2019]). Briefly, compound (1 μL), CAI-biotin peptide (2 μL) and GST-CA CTD (2 μL) were dispensed into 384-well microplates. After 30 min incubation at room temperature, 5 μL premixed HTRF agents were added. After an additional 1 h incubation at room temperature, the HTRF signal was acquired by reading the plates in a PerkinElmer Envision Multilabel Plate Reader. Data were analyzed and visualized using GraphPad Prism (version 5.0). […] The quality of the assay was determined by calculating the Z’-factor using the following equation: Z’ = 1 - (3 × SDmax + 3 × SDmin) / |μmax - μmin|, where SDmax and SDmin represent the standard deviations of the positive and negative control measurements, respectively, and μmax and μmin represent the means of the respective positive and negative signal controls ([Zhang et al., 1999]).
# We screened a library of 1,971 small molecules, all of which were FDA-approved. Each compound was tested in duplicate at a concentration of 50 μM. […] The remaining compounds were further validated through dose–response analysis using the HTRF assay.
# Seven hit compounds were repurchased and subjected to a 12-point two-fold serial dilution, from 50 to 0.024 μM. […] This assay was conducted using three different concentrations of the compounds to determine their binding to monomeric CA.
# [2] = target: integrase; design: method as in Esposito et al., 2016; details: ref Esposito et al., 2016; cited from earlier work
# [3] = Cytotoxicity, MTT assay; assay type: cell-based; details: human, C8166 cells
# Experimental: (§1) Anti-HIV-1 activity was determined by an assay based on virus-induced cytopathic effects (CPE) ([Zhang et al., 2020]). Briefly, C8166 cells were infected with HIV-1 at a multiplicity of infection (M.O.I) of 0.03, with DMSO or diluted SA or SB in 96-well plates. […] The cytotoxicity of the compounds was determined by a tetrazolium dye (MTT) based assay. C8166 cells were co-incubated with diluted SA or SB in 96-well plates. After 3 days, cell viability was determined using MTT, and the 50% cytotoxicity concentration (CC50) was calculated. […] Tenofovir disoproxil fumarate (TDF) was used as a positive control.
# (§2) To further evaluate the antiviral effects of SA and SB, we tested them for protecting C8166 cells from HIV-1-induced CPE. The cytotoxic effect of these compounds on C8166 cells was also assessed.
# [4] = test system: HIV-1; test: Anti-HIV-1 activity, virus-induced cytopathic effect in C8166 cells; assay type: cell-based; details: for IC50: Human immunodeficiency virus 1, M.O.I 0.03, 72 h, read-out: IC50 against HIV-1 induced CPE
# Experimental: as §1, §2
# [5] = target: HIV-1 CA hexamer (Human immunodeficiency virus type 1 group M subtype B, UniProt P12493, A146C/E177C/M317A/W316A); test: BLI binding to CA hexamer
# [6] = test system: HIV-1; design: method as in Esposito et al., 2016; details: cell-based assays, ref Esposito et al., 2016; read-out: EC50, anti-HIV-1 activity; cited from earlier work
# [7] = target: HIV-1 CA monomer (E187A) (Human immunodeficiency virus type 1 group M subtype B, UniProt P12493, E319A); test: biochemical; assay type: binding
# [8] = target: HIV-1 CA monomer (Y169A) (Human immunodeficiency virus type 1 group M subtype B, UniProt P12493, Y301A); test: biochemical; assay type: binding
# [9] = test system: protease of zika virus; details: ref Coelho et al., 2022; cited from earlier work
# [10] = target: RNase H; design: method as in Esposito et al., 2016; details: ref Esposito et al., 2016; cited from earlier work
# [11] = target: HIV-1 CA monomer (L211S) (Human immunodeficiency virus type 1 group M subtype B, UniProt P12493, L343S); test: biochemical; assay type: binding
# [12] = target: HIV-1 CA monomer (N183A) (Human immunodeficiency virus type 1 group M subtype B, UniProt P12493, N315A); test: biochemical; assay type: binding
# [13] = target: HIV-1 reverse transcriptase-associated DNA Polymerase; design: method as in Esposito et al., 2016; details: ref Esposito et al., 2016; cited from earlier work
# [14] = target: T2, CA hexamer/CPSF6 peptide interaction (Human immunodeficiency virus type 1 group M subtype B, UniProt P12493, A146C/E177C/M317A/W316A); assay type: binding, HIV-1
# T2 construct: capsid proteins (CA) released by proteolytic processing of Gag; made in house
# Experimental: As mentioned previously, this pocket is the binding site for two host cell proteins, CPSF6 and NUP153 ([Price et al., 2014]). […] We then performed a BLI-based competition assay. CA hexamer at a concentration of 5 μM, either alone or in combination with high concentrations of SA or SB or PF-74, were used to bind to the SA biosensor loaded with biotinylated CPSF6_313–327 or NUP153_1407–1423.
# Biotinylated hexameric CA was firstly loaded to streptavidin-coated biosensors. Then the biosensors were dipped into the plate wells containing CPSF6_308-327 or NUP153_1407–1423 in the absence or presence of PF74 or SA or SB. BLI signals were captured by Octet96 system and data were normalized according to the signal in the absence of compound. Comparisons between data were carried out using the paired t-test by GraphPad Prism 5.0. The double asterisk (^**) and three asterisks (^***) represent p < 0.01 and < 0.001 from the paired t test, respectively.
# [15] = target: HIV-1 CA monomer (L211A); test: biochemical; assay type: binding; details: CA L211A compared to WT CA
# [16] = target: HIV-1 CA monomer (L211A) (Human immunodeficiency virus type 1 group M subtype B, UniProt P12493, L343A); test: biochemical; assay type: binding
# [17] = target: T3, HIV-1 CA (Human immunodeficiency virus type 1 group M subtype B, UniProt P12493); test: In vitro assembly of recombinant CA (absorbance at 350 nm); assay type: biochemical; details: 2.5 M NaCl, absorbance at 350 nm over time
# T3 construct: capsid proteins (CA) released by proteolytic processing of Gag; made in house
# Experimental: To monitor the in vitro assembly of HIV-1 CA in the presence and absence of hit compounds, changes in sample absorbance over time at 350 nm were measured, as previously described ([Lanman et al., 2002]; [Tang et al., 2003]; [Xu et al., 2018]). To initiate the assay, 1 μL of 5 mM SA or SB was added to 74 μL of buffer composed of a mixture of 5 M NaCl and 200 mM NaH2PO4 (pH 8.0) in a ratio of 2:1 by volume. Subsequently, 25 μL of CA (120 μM) was added to each well and DMSO served as a vehicle control. After a 2-min equilibration period, sample absorbance values were measured at 350 nm every 60 s for 39 min using a Perkin Elmer Envision microplate reader and were corrected by subtracting the absorbance values of a blank sample without sodium chloride. The resulting data were analyzed using GraphPad Prism 5.0.
# Under high ionic strength conditions, recombinant CA can spontaneously oligomerize and form open-ended helical tubes consisting of repeating CA hexamers. To investigate the impact of SA and SB on CA tube assembly, we monitored in vitro CA assembly in the presence and absence of SA and SB by measuring changes in light absorbance over time in 2.5 M NaCl. CA (25 μM) for CA. […] We used BLI to determine the KD values of SA and SB in the HIV-1 CA hexamer.
# Figure 4 Sennoside A and Sennoside B induced CA multimerization in vitro. (A–B) Light scattering (absorbance at 350 nm) responses showing the rate and extent of in vitro CA (20 μM) assembly in 2.5 M NaCl, in absence of compounds (mock) and the presence of Sennoside A and Sennoside B or CAI. Data are representative of three independent experiments. (C–D) Representative binding sensorgrams depicting the interaction of SA or SB with CA hexamer assessed by bio-layer interferometry (BLI) detection.
# [18] = target: T4, HIV-1 CA monomer (WT) (Human immunodeficiency virus type 1 group M subtype B, UniProt P12493); test: biochemical; assay type: binding; details: 7.5–30 μM compound, 1:1 model, mean ± SD
# T4 construct: capsid proteins (CA) released by proteolytic processing of Gag; made in house
# [19] = test system: SARS-CoV-2 main protease; details: cited from earlier work
# [20] = primary screening, compound at 50 μM, duplicate
# [21] = 5 μM CA hexamer, PF74 2.5 μM, SA 225 μM, SB 175 μM
molecule,measurement,setting,value
O=C(O)CCCC[C@@H]1SC[C@@H]2NC(=O)N[C@@H]21 [Biotin],inhibition at 50 µM,[1],98.8%
CC[C@H](C)C[C@H](C)CCCCCCCCC(=O)N[C@H]1C[C@@H](O)[C@@H](NCCN)NC(=O)[C@@H]2[C@@H](O)CCN2C(=O)[C@H]([C@H](O)CCN)NC(=O)[C@H]([C@H](O)[C@@H](O)c2ccc(O)cc2)NC(=O)[C@@H]2C[C@@H](O)CN2C(=O)[C@H]([C@@H](C)O)NC1=O [Caspofungin],IC50,[1],29500 nM
same,inhibition at 50 µM,[1]; [20],94.2%
CCCCCCCCCCCC1=C(O)C(=O)C=C(O)C1=O [Embelin],inhibition at 50 µM,[1]; [20],94.3%
"O=C(O)c1cc(O)c2c(c1)[C@H]([C@H]1c3cc(C(=O)O)cc(O)c3C(=O)c3c(O[C@@H]4O[C@H](CO)[C@@H](O)[C@H](O)[C@H]4O)cccc31)c1cccc(O[C@@H]3O[C@H](CO)[C@@H](O)[C@H](O)[C@H]3O)c1C2=O [Sennoside A, sennoside A]",IC50,[2],3800 nM
same,CC50 at 3 days,[3],22600 nM
same,selectivity index (SI = CC50/EC50),[4],less than 10
same,IC50,[4],2270 nM
same,Kd,[5],1750 nM and 2250 nM
same,EC50,[6],~9000 nM
same,Kd,[7],7690 ± 250 nM
same,Kd,[8],8800 ± 290 nM
same,IC50,[9],660 nM
same,IC50,[10],1900 nM
same,Kd,[11],7000 ± 180 nM
same,Kd,[12],1950 ± 60 nM
same,IC50,[13],5300 nM
same,IC50,[1],180 nM
same,inhibition at 50 µM,[1]; [20],94.7%
same,effect on CA hexamer/CPSF6 peptide interaction,[14]; [21],inhibited
same,KD fold change,[15],1.35
same,Kd,[16],3170 ± 90 nM
same,effect on in vitro CA assembly,[17],increased in vitro CA assembly in a dose-dependent manner
same,Kd,[18],2340 nM
"O=C(O)c1cc(O)c2c(c1)[C@@H]([C@H]1c3cc(C(=O)O)cc(O)c3C(=O)c3c(O[C@@H]4O[C@H](CO)[C@@H](O)[C@H](O)[C@H]4O)cccc31)c1cccc(O[C@@H]3O[C@H](CO)[C@@H](O)[C@H](O)[C@H]3O)c1C2=O [Sennoside B, sennoside B]",CC50 at 3 days,[3],33400 nM
same,selectivity index (SI = CC50/EC50),[4],less than 10
same,IC50,[4],4730 nM
same,Kd,[5],2250 nM and 1750 nM
same,Kd,[7],6770 ± 200 nM
same,Kd,[8],2800 ± 70 nM
same,Kd,[11],4840 ± 120 nM
same,Kd,[12],3960 ± 110 nM
same,IC50,[1],80 nM
same,inhibition at 50 µM,[1]; [20],95.1%
same,IC50,[19],104 nM
same,effect on CA hexamer/CPSF6 peptide interaction,[14]; [21],inhibited
same,Kd,[16],2520 ± 70 nM
same,effect on in vitro CA assembly,[17],increased in vitro CA assembly in a dose-dependent manner
same,Kd,[18],1620 nM
"CAI: dodecapeptide capsid assembly inhibitor identified by phage display, positive control (ITFEDLLDYYPGGGSK(Biotin))",effect on in vitro CA assembly,[17],inhibited CA assembly in vitro
PF-74,effect on CA hexamer/CPSF6 peptide interaction,[14],"inhibited, to a degree"
